Drawing on patent US12187733B1, “5-(Substitutedphenyl)-7-Imino-7,8-Dihydropyrimido[4,5-d]pyrimidine-2,4(1H,3H)-dione analogues as anti-inflammatory agents” (KING FAISAL UNIVERSITY, priority 2023, dated 2025), this text covers IC50 for four compounds.

The experiment is described as follows: Anti-inflammatory activity. The text has this: Anti-Inflammatory Activity
As a reminder, the IC50 is the concentration that gives 50% inhibition. `[H]/N=c1\nc(-c2ccc(OCc3ccccc3)cc2)c2c(=O)[nH]c(=O)[nH]c2[nH]1` [Compound 4b, 5-(4-(Benzyloxy)phenyl)-7-imino-7,8-dihydropyrimido[4,5-d]pyrimidine-2,4 (^1H,3H)-dione] had an IC50 of 90.9 nM. This counts as double-digit nanomolar.

`[H]/N=c1\nc(-c2ccc(OC)c(O)c2)c2c(=O)n(C)c(=O)n(C)c2[nH]1` [Compound 4d, 5-(3-Hydroxy-4-methoxyphenyl)-7-imino-1,3-dimethyl-7,8-dihydropyrimido[4,5-d]pyrimid-ine-2,4 (^1H,3H)-dione] yielded an IC50 of 106 nM. The IC50 values of the last two compounds are within 1.5-fold of each other. In the case of `[H]/N=c1\nc(-c2cccc(OCc3ccccc3)c2)c2c(=O)[nH]c(=O)[nH]c2[nH]1` [Compound 4a, 5-(3-(Benzyloxy)phenyl)-7-imino-7,8-dihydropyrimido[4,5-d]pyrimidine-2,4 (^1H,3H)-dione] it was 248 nM. On to `[H]/N=c1\nc(-c2ccc(OC)c(O)c2)c2c(=O)[nH]c(=O)[nH]c2[nH]1` [Compound 4c, 5-(3-Hydroxy-4-methoxyphenyl)-7-imino-7,8-dihydropyrimido[4,5-d]pyrimidine-2,4 (^1H,3H)-dione], for which the half-inhibitory concentration (IC50) stood at 218 nM.
